Assay results: ChEMBL document CHEMBL1149445, “Isolation, synthesis, and anti-tumor activities of a novel class of podocarpic diterpenes” (Bioorg Med Chem Lett, 2006)
In brackets after ≈: the same amount, converted by molar mass.

What was measured:
Format in all cases: functional, cell-based
MCF7 = experiment: Antitumor activity against human breast adenocarcinoma MCF7 cell line
CNE = experiment: Antitumor activity against human nasopharyngeal carcinoma CNE cell line
A549 = experiment: Antitumor activity against human lung adenocarcinoma A549 cell line
HeLa = experiment: Antitumor activity against human cervical carcinoma HeLa cell line
[1] = Homo sapiens, MCF7, read-out: IC50
[2] = Homo sapiens, CNE, read-out: IC50
[3] = Homo sapiens, A549, read-out: IC50
[4] = Homo sapiens, HeLa, read-out: IC50

| Molecule | IC50 (CNE; [2]) | IC50 (MCF7; [1]) | IC50 (A549; [3]) | IC50 (HeLa; [4]) | IC50 (MCF7; mcf7) | IC50 (CNE; cne) | IC50 (A549; a549) | IC50 (HeLa; hela) |
| --- | --- | --- | --- | --- | --- | --- | --- | --- |
| CC1(C)CCC[C@]2(C)c3cc(O)c(OCc4cccc([N+](=O)[O-])c4)cc3CC[C@H]12 | > 50 µg/mL | > 50 µg/mL | > 50 µg/mL | 18.6 µg/mL (≈ 47 µM) |  |  |  |  |
| CC1(C)CCC[C@]2(C)c3cc(O)c(OCc4ccc(Cl)cc4)cc3CC[C@H]12 | > 50 µg/mL | > 50 µg/mL | > 50 µg/mL | > 50 µg/mL |  |  |  |  |
| CC1(C)CCC[C@]2(C)c3cc(O)c(O)cc3CC[C@H]12 | 3.6 µg/mL (≈ 13.8 µM) | 9.6 µg/mL (≈ 36.9 µM) | 5.7 µg/mL (≈ 21.9 µM) | 10.9 µg/mL (≈ 41.9 µM) |  |  |  |  |
| CC1(C)CCC[C@]2(C)c3cc(O)c(O)cc3C(=O)C(=O)[C@H]12 | 9.1 µg/mL (≈ 31.6 µM) | 24.8 µg/mL (≈ 86 µM) | 25.8 µg/mL (≈ 89.5 µM) | 18 µg/mL (≈ 62.4 µM) |  |  |  |  |
| CC1(C)CCC[C@]2(C)c3cc(O)c(O)cc3C(=O)C[C@@H]12 | 22.1 µg/mL (≈ 80.6 µM) | > 50 µg/mL | > 50 µg/mL | 27.7 µg/mL (≈ 101 µM) |  |  |  |  |
| CC1(C)CCC[C@]2(C)c3cc(O)c(OCc4ccc(Cl)cc4)cc3CC[C@@H]12 | > 50 µg/mL | > 50 µg/mL | > 50 µg/mL | > 50 µg/mL |  |  |  |  |
| CC1(C)CCC[C@]2(C)c3cc(O)c(OCc4ccccc4F)cc3CC[C@@H]12 | > 50 µg/mL | > 50 µg/mL | > 50 µg/mL | > 50 µg/mL |  |  |  |  |
| CC1(C)CCC[C@]2(C)c3cc(O)c(OCc4cccc([N+](=O)[O-])c4)cc3CC[C@@H]12 | > 50 µg/mL | > 50 µg/mL | > 50 µg/mL | > 50 µg/mL |  |  |  |  |
| CC1(C)CCC[C@]2(C)c3cc(O)c(OCc4ccccc4F)cc3CC[C@H]12 | 17.8 µg/mL (≈ 48.3 µM) | 42.9 µg/mL (≈ 116 µM) | 35 µg/mL (≈ 95 µM) | 13.4 µg/mL (≈ 36.4 µM) |  |  |  |  |
| CC1(C)CCC[C@]2(C)c3cc(O)c(O)cc3C(=O)C[C@H]12 | 13.5 µg/mL (≈ 49.2 µM) | 36.2 µg/mL (≈ 132 µM) | > 50 µg/mL | 17.6 µg/mL (≈ 64.1 µM) |  |  |  |  |
| CC1(C)CCC[C@]2(C)c3cc(O)c(O)cc3CC[C@@H]12 (stereo in doubt) |  |  |  |  | 36.5 µg/mL (≈ 140 µM) | 12.1 µg/mL (≈ 46.5 µM) | 36.1 µg/mL (≈ 139 µM) | 42 µg/mL (≈ 161 µM) |
| CC1(C)CCC[C@]2(C)c3cc(O)c(O)cc3CC[C@@H]12 (stereo in doubt; 1) |  | 41.2 µg/mL (≈ 158 µM) | 19.6 µg/mL (≈ 75.3 µM) | 24.3 µg/mL (≈ 93.3 µM) |  | 25.1 µg/mL (≈ 96.4 µM) |  |  |
| CISPLATIN |  |  |  |  | 6.53 µg/mL | 2.34 µg/mL | 3.58 µg/mL | 5.89 µg/mL |

Now from value to molecule, other results behind:

| IC50 (CNE; [2]) | Molecule | IC50 (MCF7; [1]) | IC50 (A549; [3]) | IC50 (HeLa; [4]) | IC50 (MCF7; mcf7) | IC50 (CNE; cne) | IC50 (A549; a549) | IC50 (HeLa; hela) |
| --- | --- | --- | --- | --- | --- | --- | --- | --- |
| 7.2 µg/mL (≈ 19.5 µM) | CC1(C)CCC[C@]2(C)c3cc(OCc4ccccc4F)c(O)cc3CC[C@H]12 | 12.4 µg/mL (≈ 33.7 µM) | 13.7 µg/mL (≈ 37.2 µM) | 15.3 µg/mL (≈ 41.5 µM) |  |  |  |  |
| > 50 µg/mL | CC1(C)CCC[C@]2(C)c3cc(OCc4ccccc4F)c(O)cc3CC[C@@H]12 | > 50 µg/mL | > 50 µg/mL | > 50 µg/mL |  |  |  |  |
| 3.1 µg/mL (≈ 10.3 µM) | COc1cc2c(cc1OC)[C@@]1(C)CCCC(C)(C)[C@H]1CC2=O | 7.8 µg/mL (≈ 25.8 µM) | 26.3 µg/mL (≈ 87 µM) | 12.7 µg/mL (≈ 42 µM) |  |  |  |  |
| 25.1 µg/mL (≈ 87 µM) | COc1cc2c(cc1OC)[C@@]1(C)CCCC(C)(C)[C@@H]1CC2 | 39.5 µg/mL (≈ 137 µM) | 41.7 µg/mL (≈ 145 µM) | 41.5 µg/mL (≈ 144 µM) |  |  |  |  |
| 5.6 µg/mL (≈ 17.7 µM) | COc1cc2c(cc1OC)[C@@]1(C)CCCC(C)(C)[C@H]1C(=O)C2=O | 16.5 µg/mL (≈ 52.1 µM) | 33.8 µg/mL (≈ 107 µM) | 16.1 µg/mL (≈ 50.9 µM) |  |  |  |  |
| 27.2 µg/mL (≈ 70.7 µM) | CC1(C)CCC[C@]2(C)c3cc(OCc4ccc(Cl)cc4)c(O)cc3CC[C@H]12 | > 50 µg/mL | 46.9 µg/mL (≈ 122 µM) | 42.2 µg/mL (≈ 110 µM) |  |  |  |  |
| > 50 µg/mL | COc1cc2c(cc1OC)[C@@]1(C)CCCC(C)(C)[C@@H]1CC2=O | > 50 µg/mL | > 50 µg/mL | 25.7 µg/mL (≈ 85 µM) |  |  |  |  |
| > 50 µg/mL | CC1(C)CCC[C@]2(C)c3cc(OCc4ccc(Cl)cc4)c(O)cc3CC[C@@H]12 | > 50 µg/mL | > 50 µg/mL | > 50 µg/mL |  |  |  |  |
| 4.5 µg/mL (≈ 15.6 µM) | COc1cc2c(cc1OC)[C@@]1(C)CCCC(C)(C)[C@H]1CC2 | 10.9 µg/mL (≈ 37.8 µM) | 9.6 µg/mL (≈ 33.3 µM) | 13.2 µg/mL (≈ 45.8 µM) |  |  |  |  |
| 32.9 µg/mL (≈ 83.2 µM) | CC1(C)CCC[C@]2(C)c3cc(OCc4cccc([N+](=O)[O-])c4)c(O)cc3CC[C@H]12 | > 50 µg/mL | 36.4 µg/mL (≈ 92 µM) | > 50 µg/mL |  |  |  |  |
| > 50 µg/mL | CC1(C)CCC[C@]2(C)c3cc(OCc4cccc([N+](=O)[O-])c4)c(O)cc3CC[C@@H]12 | > 50 µg/mL | > 50 µg/mL | > 50 µg/mL |  |  |  |  |
